Results on four compounds are retold here after patent US8367829B2, “Bi-functional pyrazolopyridine compounds” (Gilead Sciences, Inc., priority 2010, dated 2013).

Experiment [1] has as its system LPS-induced TNF-α release from human peripheral blood mononuclear cells (PBMC). Kind of experiment: Inhibition of LPS-induced TNF-α release from human PBMC. The experiment is classed as cell-based. The note with it: LPS 0.4 ng/mL, 6 h, presence or absence of ICI-118551 not given. The text has this: Inhibition of Lipopolysaccharide (LPS)-Induced Tumour Necrosis Factor Alpha (TNF-α) Release from Human Peripheral Blood Mononuclear Cells (PBMC)
Human whole blood was drawn from donors and cell purification initiated within two hours. Peripheral blood mononuclear cells (PBMC) were purified using a standard Ficoll gradient purification technique and aliquoted at a concentration of 100,000 cells/well in 96 well plates. Beta-2 adrenoreceptor agonists are also anti-inflammatory for some immune cells expressing the receptor and in this assay they can inhibit tumor necrosis factor-alpha (TNF-α) production. Therefore PBMC were pre-incubated for 30 min in the presence of the beta-2 adrenoreceptor antagonist ICI-118551 (3-(isopropylamino)-1-[(7-methyl-4-indanyl)oxy]butan-2-ol) (10 μM) to determine the PDE4 directed activity of test compounds, and in the absence of ICI-118551 for the combined PDE4 and beta-2 receptor directed activity. Test compounds were dissolved in DMSO and diluted in buffer (final DMSO concentration of 0.1% v/v) and were then added to the cell suspensions and pre-incubated for a further 1 h at 37° C. LPS solution was then added (0.4 ng/mL) and the cells incubated for a further 6 h. At the end of the incubation period the cell supernatants were collected and TNF-α was measured using a Procarta Cytokine Assay Kit (Affymetrix, Santa Clara, Calif.) according to the manufacturers' instructions. Data were analyzed using MiraiBio Masterplex QT v4.0 software (MasterPlex Version 1.0.1.18 Copyright 2008, Hitachi Software Engineering Co., Ltd) and used to extrapolate Mean Fluorescence Intensity (MFI) into concentrations of TNF-α and mean values from replicate wells were determined. Inhibition curves were plotted using a nonlinear curve fit employing a single-site binding model to determine the IC50 value for each test compound in the presence or absence of ICI-118551 using GraphPad Prism 5 for Windows, version 5.02 (GraphPad Software, San Diego Calif.).
EC50 determinations for the compounds presented above are seen in the fourth column of Table 1 (PBMC TNF EC50).

Another experiment addresses T1, Human recombinant PDE4B2 (Homo sapiens, UniProt Q07343).
T1 construct: purchased BPS Bioscience
As to the kind of experiment: Inhibition of PDE4B2 enzyme activity (PDE Glo Assay). In kind it is biochemical. The note with it: human recombinant PDE4B2, 50 nM cAMP; read-out: PDE4 IC50. As for the experimental part: Inhibition of PDE4B4 Enzyme Activity
The inhibitory activity of test compounds were determined using the PDE Glo Assay (Promega, V1361). The PDE-Glo Reaction Buffer was prepared (1 mL 5× buffer+4 mL water) and 150 nM solution of test compound dissolved in the Reaction Buffer, followed by 1:3 serial dilutions into Reaction Buffer. […] Human recombinant PDE4B2 (BPS Bioscience) was added to test compound in Reaction Buffer at a concentration of 0.12 nM per reaction. The enzyme and test compound were pre-incubated together at rt for 10 min. 50 nM of the enzyme substrate cAMP was then added to initiate the enzyme reaction, with the reaction terminated after one hour. Termination Buffer (1 mL 5× termination buffer+3.9 mL water+100 μL of 100 mM IBMX (ICN Chemicals, in DMSO)), was added to each reaction well to terminate the reaction. Detection Buffer (1 mL 5×PDE-Glo Detection buffer+3.96 mL water+40 μL PKA (supplied in kit)) was added to the cAMP-enzyme-test compound mix and this secondary reaction proceeded for 20 minutes at rt. An equal volume of Kinase Glo Reagent was then added to the reaction mixture and after 10 min luminescence was measured using a luminometer (EnVision, 0.1 sec read for luminescence). Luminescence values were […] related to levels of cAMP in the reaction mixture. Data were plotted as relative light units (RLU) versus test compound concentration and the IC50 determined using GraphPad Prism 5.0, using a nonlinear curve fit in a single-site binding model.
IC50 determinations for the compounds presented above are seen in the first column of Table 1 (PDE4 IC50).

The target of experiment [2] is T2, human recombinant beta-2 adrenoreceptors (Homo sapiens, UniProt P07550).
T2 construct: expressed in transfected cells; host or cells: CHO cells
Kind of experiment: Beta-2 adrenoceptor binding assay, displacement of [3H](−)CGP-12177. The note with it: CHO cells expressing human beta-2 adrenoreceptors, [3H](−)CGP-12177 0.3 nM, 120 min. As for the experimental part:
Beta-2 Adrenoceptor Binding Assay
Test compounds were incubated for 120 min with Chinese hamster oocyte (CHO) cells expressing the human recombinant beta-2 adrenoreceptors. Binding of test compounds to the beta-2 adrenoreceptors was determined by measuring the displacement of the radiolabeled ligand [^3H](−)CGP-12177 (0.3 nM) from the receptor measured by a scintillation counting. Concentration response curves were generated for test compounds and the IC50 (molar concentration of the compound which produced 50% inhibition for the maximal response for that compound) was determined. These assays were performed using a protocol based on the original description of the assay by Joseph et al., (2004) Naun.-Sch. Arch. Pharm.; 369:525-532.
IC50 determinations for the compounds presented above are seen in the second column of Table 1 (Beta 2 IC50).

For experiment [3], the target named is T2, human recombinant beta-2 adrenoreceptors. Kind of experiment: Functional agonism of human recombinant beta-2 adrenoreceptors expressed in CHO cells (cAMP, HTRF). Particulars: cAMP elevation, 30 min. The experiment is classed as cell-based. On the procedure: Functional Agonism of Human Recombinant Beta-2 Adrenoreceptors Expressed in Chinese Hamster Oocytes (CHO)
Test compounds were incubated for 30 min with CHO cells expressing the human recombinant beta-2 adrenoreceptors. Agonism of the receptor was measured by the elevation of intracellular cyclic-AMP over control levels detected using a homogeneous time resolved fluorescence (HTRF) format. Compounds were determined to be “full” or “partial” agonists based on the maximum level of cAMP accumulated compared to the control compound isoproterenol which is a full agonist in this assay system. Concentration response curves were generated for test compounds and the EC50 (molar concentration of the agonist which produced 50% of the maximal response for that compound) was determined. These assays were performed using a protocol based on the original description of the assay by Baker, J. G. (2005) Brit. J. Pharmacol.; 144:317-322.
EC50 determinations for the compounds presented above are seen in the third column of Table 1 (Beta 2 EC50).

T2 sequence (P07550 whole entry): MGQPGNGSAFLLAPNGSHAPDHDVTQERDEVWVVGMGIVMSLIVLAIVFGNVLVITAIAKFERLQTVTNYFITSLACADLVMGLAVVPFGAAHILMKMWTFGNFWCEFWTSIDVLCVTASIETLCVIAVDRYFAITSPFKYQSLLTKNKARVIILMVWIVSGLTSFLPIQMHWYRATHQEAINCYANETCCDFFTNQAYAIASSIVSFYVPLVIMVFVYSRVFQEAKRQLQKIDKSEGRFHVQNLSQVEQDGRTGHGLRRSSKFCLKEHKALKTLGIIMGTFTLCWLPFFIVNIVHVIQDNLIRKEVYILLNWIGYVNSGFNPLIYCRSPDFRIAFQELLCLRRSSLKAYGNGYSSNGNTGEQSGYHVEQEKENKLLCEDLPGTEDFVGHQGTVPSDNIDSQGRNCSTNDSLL
T1 sequence (Q07343 1-564 isoform Q07343-2): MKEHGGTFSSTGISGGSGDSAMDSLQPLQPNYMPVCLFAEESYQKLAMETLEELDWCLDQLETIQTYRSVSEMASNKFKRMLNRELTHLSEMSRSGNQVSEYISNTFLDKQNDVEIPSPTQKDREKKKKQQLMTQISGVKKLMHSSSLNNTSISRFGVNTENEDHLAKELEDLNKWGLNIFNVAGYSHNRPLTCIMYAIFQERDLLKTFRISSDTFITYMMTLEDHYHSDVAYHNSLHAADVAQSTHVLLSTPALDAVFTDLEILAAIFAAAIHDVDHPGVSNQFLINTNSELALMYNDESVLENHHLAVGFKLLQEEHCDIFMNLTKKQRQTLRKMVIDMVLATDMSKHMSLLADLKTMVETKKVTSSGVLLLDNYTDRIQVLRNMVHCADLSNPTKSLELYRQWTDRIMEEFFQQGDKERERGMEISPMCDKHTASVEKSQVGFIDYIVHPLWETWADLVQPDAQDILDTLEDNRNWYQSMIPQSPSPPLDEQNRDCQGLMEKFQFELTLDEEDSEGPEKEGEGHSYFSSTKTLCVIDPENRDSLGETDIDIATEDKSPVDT

By EC50 is commonly meant the concentration giving half of the maximal effect. Broadly, the IC50 is the concentration needed to halve the response being measured. Turning to `CCc1nc2c(cnn2CC)c(NC2CCOCC2)c1CNC(=O)CCCCCCCNC[C@H](O)c1ccc(O)c2[nH]c(=O)ccc12` [Example 10, (R)—N-[[1,6-Diethyl-4-[(tetrahydro-2H-pyran-4-yl)amino]-1H-pyrazolo[3,4-b]pyridin-5-yl]methyl]-8-[[2-hydroxy-2-(8-hydroxy-2-oxo-1,2-dihydroquinolin-5-yl)ethyl]amino]octanamide], the EC50 in experiment [1] and in experiment [3] was under 100 nM each time. Moreover, the IC50 on Human recombinant PDE4B2 was under 100 nM; in experiment [2], over 300 nM.
Turning to `CCc1nc2c(cnn2CC)c(NC2CCOCC2)c1CNC(=O)Nc1ccc(CCCCCNC[C@H](O)c2ccc(O)c3[nH]c(=O)ccc23)cc1` [Example 12, (R)-1-((1,6-diethyl-4-((tetrahydro-2H-pyran-4-yl)amino)-1H-pyrazolo[3,4-b]pyridin-5-yl)methyl)-3-(4-(5-((2-hydroxy-2-(8-hydroxy-2-oxo-1,2-dihydroquinolin-5-yl)ethyl)amino)pentyl)phenyl)urea], the EC50 in experiment [1] and in experiment [3] was under 100 nM throughout. For the same compound, the IC50 (on Human recombinant PDE4B2; in experiment [2]) was under 100 nM throughout.
For `CCc1nc2c(cnn2CC)c(NC2CCOCC2)c1CNC(=O)c1ccc(CCCCCNC[C@H](O)c2ccc(O)c3[nH]c(=O)ccc23)cc1` [Example 9, (R)—N-[[1,6-diethyl-4-[(tetrahydro-2H-pyran-4-yl)amino]-1H-pyrazolo[3,4-b]pyridin-5-yl]methyl]-4-[5-[[2-hydroxy-2-(8-hydroxy-2-oxo-1,2-dihydroquinolin-5-yl)ethyl]amino]pentyl]benzamide], the EC50 in experiment [1] and in experiment [3] was under 100 nM each time. In addition, the concentration for half-maximal inhibition (IC50) (at Human recombinant PDE4B2; in experiment [2]) was under 100 nM in each case.
For the compound `CCc1nc2c(cnn2CC)c(NC2CCOCC2)c1CNC(=O)Nc1ccc(C#CCCCNC[C@H](O)c2ccc(O)c3[nH]c(=O)ccc23)cc1` [Example 11], the concentration giving a half-maximal response (EC50) in experiment [1] and in experiment [3] was under 100 nM in each case. In addition, the IC50 (on Human recombinant PDE4B2; in experiment [2]) was under 100 nM in each case.
